In US11079373B2, “Biomarker detection methods and systems and kits for practicing same” (The Board of Trustees of the Leland Stanford Junior …, priority 2015, dated 2021):

Key:
Format in all cases: cell-based, human
[1] = tested on: peripheral blood mononuclear cells (PBMC); experiment: Cytometric Bead Array (CBA) IFNγ secretion detection in culture media of PHA-treated PBMC; conditions: 16 h, culture medium
Method: One hundred thousand peripheral blood mononuclear cells (0.1×10^6 PBMC) in 100 μL of 10% FBS RPMI 1640 containing varying concentrations of PHA were seeded in each well in a 96 well plate and incubated in a humidified 37° C., 5% CO2 incubator for 16 h. The plate was centrifuged at 2,500 g for 3 min and 50 μL culture medium of each well was carefully transferred into each corresponding test well in a new 96 well plate. After adding 50 μL INFγ capture beads (BD Biosciences; Cat. 558269) into each well, the plate was incubated at room temperature (RT) for 60 min with constant shaking on a plate shaker. After adding 50 μL INFγ PE-detection reagents (BD Biosciences; Cat. 51-9004031), the plate was continually incubated at RT for additional 2 h. The beads were then washed three times with 200 μL wash buffer (0.05% Tween-20 in PBS) and acquired on a BD FACSCanto II flow cytometer. The concentrations of INFγ in the culture media from each well were extrapolated from the standard curve generated from a series of known INFγ standards in the same batch of CBA assay.

PBMC cells = experiment: Three-color IFNγ/IL-2/GrB detection by […]; conditions: PHA 20 ug/mL, 16 h
[2] = tested on: peripheral blood mononuclear cells (PBMC); experiment: FlowSpot IFNγ secretion in situ detection, PBMC co-cultured with IFNγ capture microparticles in presence of PHA; conditions: 16 h; for FLOWSPOT SPOTS (n) (IFNγ): percent positive × 7,000
Method: (§1) One hundred thousand peripheral blood mononuclear cells (0.1×10^6 PBMC) or purified lymphocytes were mixed with 7,000 capture microspheres and distributed into each assay well of a 96-well U bottom plate. The plate was centrifuged at 1,500×g for 5 min and the supernatant was removed. The pellet of cells and capture beads were resuspended in 200 μL culture medium with or without testing reagent(s) or stimulus(i), then the plate was incubated in a humidified 37° C., 5% CO2 incubator for 10 min to 7 days (usually 2 to 16 h). After incubation, the cells were lysed in NP-40 lysis buffer (10 mM Tris-HCl, pH 7.4, 10 mM NaCl, 3 mM MgCl2, 0.5% NP-40). The capture beads were washed twice with 3% HBSA (3% BSA in HBSS) and incubated with 50 μL PE-labeled anti-Bio-marker for 60 min at room temperature. After two washes of 3% HBSA, the beads were acquired and analyzed on a BD FACSCanto II flow cytometer. The number of positive spots was calculated based on the following formulas: Percent positive spots (%)=Number of positive particles acquired/Total number of particles acquired×100 Total number of positive spots=Percent positive spots (%)×7,000 (where 7,000=total number of particles/test)
In parallel, 0.1×10^6 PBMC cells from the same donor were co-cultured with 7,000 IFNγ capture microparticles in a humidified 37° C., 5% CO2 incubator for 16 h in the presence of PHA at various concentrations. After incubation, the cells were lysed in NP-40 lysis buffer (10 mM Tris-HCl, pH 7.4, 10 mM NaCl, 3 mM MgCl2, 0.5% NP-40). The capture beads were washed twice with 3% HBSA (3% BSA in HBSS) and incubated with 50 μL PE-labeled anti-IFNγ for 60 min at room temperature. After an additional two washes of 3% HBSA, the beads were acquired and analyzed on a BD FACSCanto II flow cytometer.

C.T.L. cells = experiment: Two-color IFNγ/IL-2 detection by FLOWSPOT; conditions: PHA at various concentrations, 16 h
Method: as §1
One hundred thousand C.T.L. cells were co-cultured with a mix of IFNγ and IL-2 capture microparticles (7,000 each with different fluorescent ID codes) for 16 h in the presence of PHA at various concentrations.

phytohaemagglutinin [PHA]
CBA IFNγ ([1]; PHA 0.5 μg/mL, from standard curve): 17 pg/mL
CBA IFNγ ([1]; PHA 1 μg/mL): 36 pg/mL
CBA IFNγ ([1]; PHA 2.5 μg/mL): 76 pg/mL
CBA IFNγ ([1]; PHA 5 μg/mL): 174 pg/mL
CBA IFNγ ([1]; PHA 10 μg/mL): 281 pg/mL
CBA IFNγ ([1]; PHA 15 μg/mL): 344 pg/mL
CBA IFNγ ([1]; PHA 20 μg/mL): 312 pg/mL
median channel value (MCV), intensity of IFNγ secretion (PBMC cells): 653
median channel value (MCV), intensity of IL-2 secretion (PBMC cells): 407
number of positive spots for GrB (PBMC cells): 630 spots
number of positive spots for IFNγ (PBMC cells): 5,320 spots
number of positive spots for IL-2 (PBMC cells): 4,340 spots
FLOWSPOT MFI (IFNγ) ([2]; PHA 0.5 μg/mL): 166
FLOWSPOT % Positive Spot (IFNγ) ([2]; PHA 0.5 μg/mL, 0.1×10^6 PBMC, 7,000 microparticles): 24%
FLOWSPOT SPOTS (n) (IFNγ) ([2]; PHA 0.5 μg/mL): 1680 n
FLOWSPOT % Positive Spot (IFNγ) ([2]; PHA 1 μg/mL): 35%
FLOWSPOT MFI (IFNγ) ([2]; PHA 1 μg/mL): 659
FLOWSPOT SPOTS (n) (IFNγ) ([2]; PHA 1 μg/mL): 2450 n
FLOWSPOT % Positive Spot (IFNγ) ([2]; PHA 2.5 μg/mL): 43%
FLOWSPOT MFI (IFNγ) ([2]; PHA 2.5 μg/mL): 4050
FLOWSPOT SPOTS (n) (IFNγ) ([2]; PHA 2.5 μg/mL): 3010 n
FLOWSPOT % Positive Spot (IFNγ) ([2]; PHA 5 μg/mL): 45%
FLOWSPOT MFI (IFNγ) ([2]; PHA 5 μg/mL): 9541
FLOWSPOT SPOTS (n) (IFNγ) ([2]; PHA 5 μg/mL): 3150 n
FLOWSPOT % Positive Spot (IFNγ) ([2]; PHA 10 μg/mL): 56%
FLOWSPOT MFI (IFNγ) ([2]; PHA 10 μg/mL): 19594
FLOWSPOT SPOTS (n) (IFNγ) ([2]; PHA 10 μg/mL): 3920 n
FLOWSPOT % Positive Spot (IFNγ) ([2]; PHA 15 μg/mL): 57%
FLOWSPOT MFI (IFNγ) ([2]; PHA 15 μg/mL): 21680
FLOWSPOT SPOTS (n) (IFNγ) ([2]; PHA 15 μg/mL): 3990 n
FLOWSPOT % Positive Spot (IFNγ) ([2]; PHA 20 μg/mL): 55%
FLOWSPOT MFI (IFNγ) ([2]; PHA 20 μg/mL): 22241
FLOWSPOT SPOTS (n) (IFNγ) ([2]; PHA 20 μg/mL): 3850 n
IFNγ response to PHA (C.T.L. cells): dose-dependent responses
IL-2 response to PHA (C.T.L. cells): dose-dependent responses
